Data set [1] deals with CHIP. Briefly: Liposome pelleting assay, effect of lipids and HSP70-C on CHIP association. It is filed as binding, Human. The note with it: 2 mM liposomes, 2 µM CHIP, 30 min at 37°C, N = 3. How it is done:
(§1) Human recombinant full length CHIP and its truncated versions were purified from Escherichia coli BL21 cells using Glutathion Sepharose 4B (GE Healthcare). Sepharose-bound GST-CHIP was subjected to overnight treatment with PreScission protease and the released tag-free protein was collected. Size exclusion chromatography on a HiLoad Superdex 200 column (GE Healthcare) followed to ensure the purity and homogeneity of proteins. All CHIP variants were kept in HSP70 buffer (25 mM HEPES KOH pH 7.5, 150 mM KCl, 5 mM MgCl2, 5% glycerol, 1 mM DTT).
Human C-terminal HSP70 6xHis-tagged N-terminally was purified from Escherichia coli BL21 cells using 1 ml HisTrap column (GE Healthcare). Bound protein was eluted by applying an imidazole gradient. Fractions containing the protein were subjected to size exclusion chromatography using HiLoad Superdex 200 in HSP70 buffer. His-NQO1, His-UbcH5a, His-Uev1a and His-Ubc13 were purified similarly except that PBS/1 mM DTT was used during size exclusion chromatography. Purity of recombinant protein was evaluated by SDS-PAGE and Coomassie BB G-250 (CBB) staining. Concentration of proteins was determined measuring absorbance at 280 nm and using ProtParam (ExPASy) to calculate respective extinction coefficients. Proteins were aliquoted, snap-frozen and stored at −80°C.
Liposomes were prepared by mixing 1,2-dioleoyl-sn-glycero-3-phosphocholine (DOPC) with indicated amount (wt/wt) of either 1,2-dipalmitoyl-sn-glycero-3-phosphate (phosphatidic acid) or (wt/wt) 1,2-dipalmitoyl-sn-glycero-3-phosphoinositol-4-phosphate (PI4P) in a 1.5 ml reaction tube (Eppendorf). Lipid mixtures were dried under a nitrogen stream and kept for 1 hr under vacuum. Liposomes were rehydrated in 1 ml filtered reconstitution buffer (25 mM HEPES KOH pH 7.5, 50 mM NaCl) to a concentration of 10 mM lipids. Liposomes were reconstituted by shaking at 2000 rpm for 1 hr at 50°C, followed by sonication for 1 hr at 50°C in a water bath. The liposome suspension was subjected to five freeze-thaw cycles in liquid nitrogen to promote unilamellar vesicle formation, aliquoted in 200 µl and pulse-sonicated for 8 s at 45% output with MS72 sonotrode (Bandelin) to create a population of homogenously sized liposomes as determined using NanoSight (Malvern Instruments). Sonicated liposomes were pooled, aliquoted again, snap-frozen and stored at −80°C.
2 mM liposomes were mixed with 2 µM recombinant protein in 50 µl reconstitution buffer. The suspension was incubated shaking at 450 rpm for 30 min at 37°C. Liposomes with bound protein were sedimented by ultracentrifugation at 100,000 g for 30 min at 25°C. Liposome pellet was washed with 50 µl of reconstitution buffer and sedimented again at 100,000 g for 30 min at 25°C. The pellet was resuspended in 10 µl reconstitution buffer, resolved by SDS-PAGE and analyzed by CBB staining. Images were acquired with ChemiDoc MP imaging system and quantified using Image Lab 5.0 software (both from Bio-Rad Laboratories). For competition assays, indicated amounts of C-terminal HSP70 were preincubated with 2 µM CHIP for 20 min at 37°C prior to co-sedimentation.

For data set [2], the system named is CHIP. Briefly: Liposome floatation assay. Particulars: 20% PA, 1 mM liposomes, 0.5 µM CHIP, 30 min at 37°C, pH 7.5. It is filed as binding, Human. The protocol:
as §1
(§2) Liposomes were prepared by mixing 1,2-dioleoyl-sn-glycero-3-phosphocholine (DOPC) with indicated amount (wt/wt) of either 1,2-dipalmitoyl-sn-glycero-3-phosphate (phosphatidic acid) or (wt/wt) 1,2-dipalmitoyl-sn-glycero-3-phosphoinositol-4-phosphate (PI4P) in a 1.5 ml reaction tube (Eppendorf). […] The liposome suspension was subjected to five freeze-thaw cycles in liquid nitrogen to promote unilamellar vesicle formation, aliquoted in 200 µl and pulse-sonicated for 8 s at 45% output with MS72 sonotrode (Bandelin) to create a population of homogenously sized liposomes as determined using NanoSight (Malvern Instruments). […]
1 mM liposomes and 0.5 µM CHIP were incubated in 150 µl reconstitution buffer for 30 min at 37°C. […] Resulting fractions were analyzed by SDS-PAGE and western blotting after loading dilution-corrected amount of respective fractions.

Data set [3] concerns CHIP. Briefly: Lipid-binding assay (membrane-immobilized lipids, lipid arrays). Also noted: species or system Human. The note with it: lipid strips/PIP strips, 0.5 µg/ml wild-type chaperone-free CHIP, 1 hr at RT, anti-C-CHIP antibody. How it is done: as §1
Membrane-immobilized lipids (Membrane lipid strips P-6002 and PIP strips P-6001) were purchased from Echelon Research Laboratories. The strips were incubated with blocking buffer (3% fatty acid free BSA, 0.1% (v/v) Tween-20 in PBS pH 7.5) for 1 hr at RT. 0.5 µg/ml of purified wild-type or mutant CHIP was added in blocking buffer and incubated for 1 hr at RT. Strips were washed and bound proteins were detected using anti-C-CHIP antibody. For competition experiments, ten times molar excess of C-terminal HSP70 was added to CHIP in blocking buffer.

The next data set deals with recombinant CHIP. Briefly: Chemical crosslinking of recombinant CHIP in vitro. It is filed as biochemical, Human. Particulars: sodium deoxycholate, Coomassie Blue-stained reducing SDS-PAGE. How it is done: as §1
5 µM of recombinant CHIP were crosslinked with 0.025% glutaraldehyde for 10 min at 30°C unless indicated otherwise. Crosslinking reaction was quenched with 100 mM Tris HCl pH 7.5 for 10–15 min at RT. Where indicated, HSP70 peptide at 800 μM was pre-incubated at 30°C for 20 min before adding glutaraldehyde. Crosslinking on 20% PA-containing liposomes was performed after centrifugation on the resuspended pellet. For CHIP monomerization, fresh 10% sodium deoxycholate stock solution was used. Crosslinks were analyzed with SDS-PAGE and CBB staining.

In data set [4] the test system is CHIP. The note with it: steroid detergent deoxycholate, monomerization; ref Nikolay et al., 2004; cited from earlier work. The source says:
Since lipid binding can influence the activity of enzymes ([Fang et al., 2001]; [Leonard and Hurley, 2011]), we sought to assess the ubiquitylation function of CHIP upon interaction with membranes. […] First, CHIP remained dimeric and was still capable of oligomerization (Figure 4a).

The test system of a further data set is trypsin. Briefly: Protease sensitivity assay (trypsin). It is filed as physicochemical. The note with it: 0.5 ng/µl trypsin, 37°C, 20% PA-containing liposomes; no significant difference; N = 3. The protocol:
CHIP pelleted with 20% PA-containing liposomes was subjected to 0.5 ng/µl trypsin treatment at 37°C. Hydrolysis was stopped by adding hot reducing SDS sample buffer and boiling for 5 min. Samples were analyzed by SDS-PAGE and CBB staining. For controls without liposomes, protein was used at concentration assuming 30% binding to liposomes. Images were acquired with ChemiDoc MP imaging system and quantified using Image Lab 5.0 software (both from Bio-Rad Laboratories).

Data set [5] relates to NQO1 P187S mutant; ubiquitin; CHIP. Briefly: In vitro ubiquitylation on liposomes. It is filed as biochemical. Particulars: 37°C 1 hr. How it is done:
In vitro ubiquitylation was performed in 50 mM Tris HCl pH 7.5, 50 mM NaCl, 10 mM MgCl2, 2 mM DTT and 2 mM ATP. Reactions contained 100 nM UBE1 (Boston Biochem, Cambridge, MA), 2 µM either UbcH5a or Uev1A/Ubc13, 5 µM CHIP and […] ubiquitin from bovine erythrocytes (Sigma-Aldrich). 2.5 µM NQO1 P187S mutant was added as substrate where indicated. Reactions proceeded at 37°C for 1 hr and then were stopped by adding reducing SDS sample buffer and boiling samples at 95°C for 5 min. Protein modification was analyzed by SDS-PAGE and immunoblotting using antibodies against NQO1, CHIP and ubiquitin. Where indicated, CHIP pelleted with 20% PA-containing liposomes was used instead of soluble protein.

The nature of data set [6]: Liposome pelleting assay, binding of CHIP and truncated variants to liposomes. Particulars: 20% PA- or 5% PI4P-containing DOPC liposomes, 2 mM liposomes, 2 µM CHIP, 37°C; up to.
Description: (§3) For mammalian expression of EGFP, the expression vector pEGFP-N1 from Clontech (Mountain View, CA) was used. N-terminal EGFP-CHIP fusion protein was constructed by cloning human CHIP coding sequence in pEGFP-C2 vector (Clontech) using HindIII and BamHI restriction sites. A fusion between the N-terminalβ−1,4-galactosyltransferase1 and EGFP was used as a marker of the Golgi apparatus, farnesylated EGFP as a marker of plasma membrane (both constructs from Clontech). Untagged and 3xFLAG-tagged human CHIP for mammalian expression were constructed in pCMV-10 vector (Sigma-Aldrich). HSP70 was amplified from human cDNA and cloned into pcDNA3. 1 expression vector without a tag. HSP70 lacking the last amino acid (HSP70ΔD) was prepared by site-directed mutagenesis. Vectors of full-length CHIP, UbcH5a and mutant NQO1 for bacterial expression were prepared as described ([Martínez-Limón et al., 2016]). The TPR domain bacterial expression vector (TPR) was created by exchanging glutamate152 codon to a stop codon in the full-length CHIP vector. CHIP without TPR domain (ΔTPR) was cloned by deleting the sequence between serine25 and argininge130 by means of PCR. […]
as §2
2 mM liposomes were mixed with 2 µM recombinant protein in 50 µl reconstitution buffer. […] The pellet was resuspended in 10 µl reconstitution buffer, resolved by SDS-PAGE and analyzed by CBB staining. Images were acquired with ChemiDoc MP imaging system and quantified using Image Lab 5.0 software (both from Bio-Rad Laboratories). […]

The nature of data set [7]: Lipid-binding assay, binding of CHIP variants to phospholipids. Particulars: 0.5 µg/ml protein, 1 hr at RT.
Description: as §3
Membrane-immobilized lipids (Membrane lipid strips P-6002 and PIP strips P-6001) were purchased from Echelon Research Laboratories. […] Strips were washed and bound proteins were detected using anti-C-CHIP antibody. […]

“Also recorded” adds a separate entry of the source.

Here are results for four molecules from PMC5665643, “CHIP as a membrane-shuttling proteostasis sensor” (eLife, 2017).

`CCCCCCCCCCCCCCCC(=O)OC[C@H](COP(=O)(O)O)OC(=O)CCCCCCCCCCCCCCC` [PA, 1,2-dipalmitoyl-sn-glycero-3-phosphate]: the “CHIP association with DOPC-liposomes (pelleting), 5% PA” value in the data set on CHIP [1] (5% PA, no significant difference) is “insufficient to strengthen binding of CHIP onto liposomes; also recorded: insufficient to enhance binding of CHIP to DOPC-liposomes”. In the data set on CHIP [1] (PA-containing liposomes (Figure 2b)), the “CHIP association with DOPC-liposomes (pelleting), PA” value was “pelleting was increased in the presence of PA; also recorded: strongly”. In addition, in the data set on CHIP [2], the “CHIP cofloatation with DOPC liposomes” value was “strongly enhanced”. In the data set with CHIP [3], the “CHIP binding to phospholipid on lipid array” value is on record as “CHIP specificity mainly to phosphatidic acid (PA)”.
On to `C[C@H](CCC(=O)O)[C@H]1CC[C@H]2[C@@H]3CC[C@@H]4C[C@H](O)CC[C@]4(C)[C@H]3C[C@H](O)[C@]12C` [deoxycholate, sodium deoxycholate], for which the “monomerization of CHIP” value with recombinant CHIP is given as “monomerizes CHIP in vitro”. Moreover, the “ubiquitin ligase activity of CHIP” value in the data set on CHIP [4] was “reversibly inactivate its ubiquitin ligase activity”.
Consider “CHIP: human recombinant full length CHIP, ubiquitin ligase”, for which the “sensitivity to proteolysis on liposomes versus in solution” value with trypsin is on record as “does not change its sensitivity to proteolysis”. In addition, in [5] (5 µM CHIP or CHIP pelleted with 20% PA-containing liposomes, UbcH5a or Ubc13/Uev1a), the “ubiquitylation of NQO1 and K63 chain formation while attached to liposomes” value is “remains capable to ubiquitylate the substrate protein NQO1 and form unattached K63-conjugated chains”. The “K63-based ubiquitin polymerization on liposomes versus soluble” value in data set [5] (Ubc13/Uev1a, 20% PA-containing liposomes) is “slightly weaker on liposomes”. Also, the “auto-ubiquitylation on liposomes versus soluble” value in data set [5] (UbcH5a, 20% PA-containing liposomes) is listed as “somewhat stronger on liposomes”. The “CHIP associated with liposomes, % of input” value in [6] is 50–60%.

B1: m2Δ: CHIP with KRKK to AAAA (221–224 aa) (protein, UniProt Q9UNE7 1-303, looked up, variant K221A R222A K223A K224A)
E3 ubiquitin-protein ligase …: MKGKEEKEGGARLGAGGGSPEKSPSAQELKEQGNRLFVGRKYPEAAACYGRAITRNPLVAVYYTNRALCYLKMQQHEQALADCRRALELDGQSVKAHFFLGQCQLEMESYDEAIANLQRAYSLAKEQRLNFGDDIPSALRIAKKKRWNSIEERRIHQESELHSYLSRLIAAERERELEECQRNHEGDEDDSHVRAQQACIEAKHDKYMADMDELFSQVDEAAAARDIPDYLCGKISFELMREPCITPSGITYDRKDIEEHLQRVGHFDPVTRSPLTQEQLIPNLAMKEVIDAFISENGWVEDY
Consider B1, for which the “phospholipid binding of CHIP variant versus wild-type” value in [7] is “affects CHIP interaction with phospholipids in vitro”.
